Reference: patent US11992491B2, “Crystalline salts of 5-methyl-(6S)-tetrahydrofolic acid and L-valine ethyl ester” (Merck Patent GmbH, priority 2018, dated 2024)

Tests used:
[1] = relative humidity range from 0 to 55%; RH scans 5% per hour
Excerpt: DVS measurements are typically performed with an SPS11-100n “Sorptions Prüfsystem” from ProUmid (formerly “Projekt Messtechnik”), August-Nagel-Str. 23, 89079 Ulm (Germany).
23, 89079 Ulm (Germany). For relative humidity (RH) scans, change rates of 5% per hour were used.

[2] = for kinetic solubility: 42.5 mg in 2.00 mL purified/de-ionized water, agitated at room temperature for one minute, filtered, gravimetric evaluation of residue
Protocol: (§1) 42.5 mg of the anhydrous form of the crystalline 5-methyl-(6S)-tetrahydrofolic acid L-valine ethyl ester salt (Form A) according to Example 2 was weighed into a 7 mL glass vial with a screw cap. 2.00 mL of purified/de-ionized water (for instance water for chromatography) was added to the solid using an adjustable volumetric pipette. The mixture was vigorously agitated at room temperature for one minute. […] The dilute suspension was filtered by centrifugal filtration and 1.50 mL of the aqueous solution was transferred into a tared glass vial (about 10 mL volume). The water was evaporated in an air dryer at 40° C. for about 15 hours, then at 50° C. for about eight hours, subsequently drying was completed at 50° C. under vacuum (10 to 20 mbar) for about 13 hours. The solubility was determined by gravimetric evaluation of the solid residue.
as §1, with “calcium” for “L-valine ethyl ester”, “salt” for “salt (Form A) according to Example 2”, “The” for “The dilute”

[3] = cited from earlier work; for aqueous solubility: at room temperature, known values for calcium salt polymorphs

5-methyl-(6S)-tetrahydrofolic acid L-valine ethyl ester salt
change of relative sample mass (DVS) [1]: less than 1% | kinetic solubility [2]: 12.5 mg of 5-methyl-(6S)-tetrahydrofolic acid per mL | improvement of kinetic solubility versus the known metastable Form 1 of the calcium salt ([2]; versus calcium salt Form 1): about 50%

5-methyl-(6S)-tetrahydrofolic acid calcium salt
change of relative sample mass (DVS) [1]: about 6% | kinetic solubility [2]: 9.0 mg of 5-methyl-(6S)-tetrahydrofolic acid per mL

CN1c2c(nc(N)[nH]c2=O)NC[C@@H]1CNc1ccc(C(=O)N[C@@H](CCC(=O)O)C(=O)O)cc1 [5-methyl-(6S)-tetrahydrofolic acid]
solubility in water (in words) ([3]; water): poorly soluble

CN1c2c([nH]c(N)nc2=O)NC[C@@H]1CNc1ccc(C(=O)N[C@@H](CCC(=O)[O-])C(=O)[O-])cc1.[Ca+2] [calcium salt (Form Ill), calcium salt of 5-methyl-(6S)-tetrahydrofolic acid]
aqueous solubility [3]: about 2.5 mg/ml

CN1c2c([nH]c(N)nc2=O)NC[C@@H]1CNc1ccc(C(=O)N[C@@H](CCC(=O)[O-])C(=O)[O-])cc1.[Ca+2] [metastable Form I, calcium salt of 5-methyl-(6S)-tetrahydrofolic acid]
aqueous solubility [3]: about 10 mg/ml
